Consider 1 compound from patent publication US20130209487A1, “Treatment of Avian Species with Inhibitors of P110 Delta Signaling” (priority 2010, published 2013).

For data set [1], the system named is H7N7 A/Equine/London/1416/73 influenza virus strain. Details: species or system mice. Particulars: mouse, in vivo.
The subject of data set [2] is influenza virus strain PR8. It counts as cell-based.

Entries after “also recorded” stand apart in the source; their conditions may differ.

`Cc1ccccc1-n1c(Cn2cnc3c(N)ncnc32)nc2cccc(C)c2c1=O` [IC87114]: in the data set on A549 cell, the “survival of A549 cell” value was “did not affect the survival”. In addition, the “survival after lethal challenge” value in data set [1] is “increased survival; also recorded: protects mice lethally challenged with virulent influenza virus”. In addition, in data set [2], the influenza virus replication entry is recorded as “inhibits influenza virus replication” and the “viral mRNA production reduced compared to untreated cells” value is reported as around 25 fold.
